Source: patent US9656953B2, “Inhibition of cell proliferation” (University of South Florida, priority 2005, dated 2017)
“Also recorded” adds a separate entry of the source.

What was measured:
cyclin E kinase activity = experiment: In vitro kinase assay, cyclin E; format: biochemical
Method: In vitro kinase assay. The kinase reaction for Raf-1 was carried out with 100 nanograms (ng) of Raf-1 (Upstate Signaling, Charlottesville, Va.), 0.5 μg of full-length Rb protein (QED Bioscience, San Diego, Calif.) as the substrate, 10 μM ATP, 10 μCi of [γ-^32P] ATP in the kinase assay buffer in the presence or absence of the drugs at 30° C. for 30 minutes. Cyclin D and E kinase assays are described in (Dasgupta 2004).

Saos-2 cells = experiment: BrdU incorporation, S-phase entry, Saos-2; format: cell-based; conditions: 20 μM, 18 hours, Rb null
Method: (§1) Proliferation assays. Bromodeoxyuridine (BrdU) labeling kits were obtained from Roche Biochemicals (Indianapolis, Ind.). Cells were plated in poly-D-lysine coated chamber slides at a density of 10,000 cells per well and rendered quiescent by serum starvation for 24 hours. Cells were then re-stimulated with serum in the presence or absence of the indicated drugs for 18 h. S-phase cells were visualized by microscopy and quantitated by counting 3 fields of 100 in quadruplicate.
Given the selectivity of 3a described in FIGS. 1 and 2 above for disrupting the Rb:Raf-1 interaction, it was examined if 3a can inhibit the proliferation of cells and whether such an inhibition required a functional Rb gene.

[1] = tested on: Aspc1, PANC1, and CAPAN2 pancreatic cancer cells; experiment: BrdU incorporation, S-phase entry, pancreatic cancer cells; format: cell-based; conditions: range over three pancreatic cell lines
Method: as §1

MDA-MB-231 cells = experiment: BrdU proliferation assay, MDA-MB-231; format: cell-based, human
Method: as §1
The metastatic human breast cancer cell line MDA-MB-231 harbors a K-Ras mutation and overexpresses EGFR.

A375 melanoma cell line = experiment: BrdU incorporation, S-phase entry, A375; format: cell-based; conditions: V600E B-Raf
Method: as §1
A V600E mutation in the B-Raf oncogene is associated with 66% of melanomas and leads to an over-activation of phospho-Erk signaling. The A375 melanoma cell line harbors the V600E B-Raf mutation. Using the methods of the preceding examples, 3a was inhibited 58% of S-phase entry in this cell line.

PC3 prostate cell line = experiment: BrdU proliferation assay, PC3; format: cell-based
Method: as §1
Prostate cell lines LNCaP and PC3 both contain mutations in K-Ras and PTEN genes.

[2] = tested on: A549 cells infected with Ad-E2F1; experiment: BrdU incorporation, A549 infected with Ad-E2F1; format: cell-based, human; conditions: 20 μM of 3a for 36 h
Method: as §1
To this end, A549 cells were infected with Ad-E2F1 or Ad-cyclin D, in the presence of 20 μM of 3a for 36 h. Ad-GFP infected cells were used as a control.

A549-sh6 tumors = experiment: A549-sh6 (Rb shRNA) xenograft in nude mice; format: in vivo; conditions: 150 mpk orally
Method: Animal Studies. Nude mice (Charles River, Wilminton, Mass., USA) were maintained in accordance with Institutional Animal Care and Use Committee (IAUCUC) procedures and guidelines. A549 cells were harvested and resuspended in PBS, and then injected s.c. into the right and left flanks (10×10^6 cells per flank) of 8-week old female nude mice as reported previously (Sun 99). When tumors reached about 100-200 mm^3, animals were dosed intraperitoneally i.p. or orally by gavage with 0.1 mL solution once daily. Control animals received a vehicle, whereas treated animals were given 3a or RRD-238a at the indicated doses. The tumor volumes were determined by measuring the length (l) and the width (w) and calculating the volume (V=lw^2/2) as described previously (Sun 99). Statistical significance between control and treated animals were evaluated using Student's t-test.
Athymic nude mice were implanted with 1×10^7 A549 cells bilaterally and the tumors were allowed to reach 200 mm^3 in size before treatment began. […] Furthermore, to examine whether 3a could affect the growth of tumors lacking Rb in vivo, sh6 and sh8 (shRNA for Rb) cell lines were implanted into the flanks of nude mice. The mice were given 3a orally at 150 mpk and the control groups were administered the vehicle.

A549 tumors = experiment: Immunohistochemistry staining of A549 xenograft tumors; format: in vivo, nude mice; conditions: A549 tumors at end of treatment
From the text: Immunohistochemistry staining. Upon termination of xenograft anti-tumor experiments, tumors were removed and fixed in 10% neutral-buffered formalin before processing into paraffin blocks. Tissue sections (5 micrometers (μm) thick) were cut from the blocks and stained with Ki-67, CD31, TUNEL, and phospho-Rb antibodies. Paraffin sections were rehydrated to PBS and processed using the following protocols. Sections were rinsed in dH2O, and then subjected to microwave ‘antigen retrieval’ for 20 minutes on 70% power, with a 1 minute cooling period after every 5 minutes, in 0.01 M sodium citrate, pH 6.0 (Janssen P J, Brinkmann A O, Boersma W J, Van der Kwast T H. J Histochem Cytochem 1994; 42(8):1169-75; Shi S R, Key M E, Kalra K L. J Histochem Cytochem 1991; 39(6):741-748). Sections were cooled for 20 minutes, rinsed 3 times in dH2O, twice in PBS and incubated in 5% normal goat serum for 30 minutes. Sections were incubated in primary antibody for 1 hour in 5% normal goat serum, rinsed 3 times in PBS. For color development the slides were treated with ABC kit (Vector Labs, Burlingame, Calif.) rinsed in dH2O, and developed using DAB as chromogen. After a final rinse in dH2O, sections were lightly counterstained in hematoxylin, dehydrated, cleared and coverslipped. Tissue sections were stained with hematoxylin and eosin (H&E) using standard histological techniques. Tissue sections were also subjected to immunostaining for CD31 (BD Biosciences, San Diego, Calif., USA) using the avidin-biotin peroxidase complex technique. Mouse monoclonal antibody was used at 1:50 dilution following microwave antigen retrieval (four cycles of 5 min each on high in 0.1 M citrate buffer). Apoptotic cells were detected using DeadEnd Colorimetric TUNEL system (Promega, Madison, Wis.).
(§2) At the end of the drug treatment, the A549 tumors were removed from the mice and fixed in formalin or snap frozen in liquid nitrogen for further histochemical analysis. The tumors were analyzed by immunohistochemistry staining with hematoxylin and eosin (H&E), TUNEL, Ki-67, phospho-Rb (807,811), and CD-31. […] Tumors were homogenized and lysates were prepared to assess the inhibition of Rb:Raf-1 interaction in vivo.

[3] = target: T1, Rb:Raf-1 interaction in tumor xenografts (Homo sapiens, UniProt P04049+P06400); experiment: IP-Western of tumor lysates, Rb:Raf-1; format: in vivo, nude mice; conditions: both doses
T1 construct: from tissue; host or cells: A549 xenograft tumors from nude mice
T1 sequence (P06400 whole entry): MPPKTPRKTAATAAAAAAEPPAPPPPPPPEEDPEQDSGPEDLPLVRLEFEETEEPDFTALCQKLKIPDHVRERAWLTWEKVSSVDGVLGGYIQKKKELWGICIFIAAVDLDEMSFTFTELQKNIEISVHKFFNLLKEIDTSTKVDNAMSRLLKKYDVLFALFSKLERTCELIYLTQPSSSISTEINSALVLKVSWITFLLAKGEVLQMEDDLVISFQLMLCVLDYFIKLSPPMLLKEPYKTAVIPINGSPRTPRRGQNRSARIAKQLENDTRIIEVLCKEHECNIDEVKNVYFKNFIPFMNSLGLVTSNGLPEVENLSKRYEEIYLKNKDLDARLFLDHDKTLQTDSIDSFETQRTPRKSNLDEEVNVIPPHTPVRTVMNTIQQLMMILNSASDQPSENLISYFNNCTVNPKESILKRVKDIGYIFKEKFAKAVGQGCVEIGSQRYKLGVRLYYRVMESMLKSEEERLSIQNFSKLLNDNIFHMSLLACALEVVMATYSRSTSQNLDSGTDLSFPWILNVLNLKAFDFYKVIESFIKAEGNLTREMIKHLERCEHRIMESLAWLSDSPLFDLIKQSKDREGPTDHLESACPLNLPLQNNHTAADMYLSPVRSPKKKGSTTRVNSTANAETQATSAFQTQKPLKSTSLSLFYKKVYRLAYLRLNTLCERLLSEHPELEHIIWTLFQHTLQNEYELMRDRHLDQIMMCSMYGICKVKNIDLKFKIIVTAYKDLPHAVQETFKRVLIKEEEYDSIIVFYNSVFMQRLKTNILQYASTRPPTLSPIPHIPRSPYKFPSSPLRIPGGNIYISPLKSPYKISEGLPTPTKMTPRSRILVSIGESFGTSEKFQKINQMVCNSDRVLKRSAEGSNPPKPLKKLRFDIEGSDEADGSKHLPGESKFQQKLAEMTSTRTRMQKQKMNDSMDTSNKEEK
T1 sequence (P04049 whole entry): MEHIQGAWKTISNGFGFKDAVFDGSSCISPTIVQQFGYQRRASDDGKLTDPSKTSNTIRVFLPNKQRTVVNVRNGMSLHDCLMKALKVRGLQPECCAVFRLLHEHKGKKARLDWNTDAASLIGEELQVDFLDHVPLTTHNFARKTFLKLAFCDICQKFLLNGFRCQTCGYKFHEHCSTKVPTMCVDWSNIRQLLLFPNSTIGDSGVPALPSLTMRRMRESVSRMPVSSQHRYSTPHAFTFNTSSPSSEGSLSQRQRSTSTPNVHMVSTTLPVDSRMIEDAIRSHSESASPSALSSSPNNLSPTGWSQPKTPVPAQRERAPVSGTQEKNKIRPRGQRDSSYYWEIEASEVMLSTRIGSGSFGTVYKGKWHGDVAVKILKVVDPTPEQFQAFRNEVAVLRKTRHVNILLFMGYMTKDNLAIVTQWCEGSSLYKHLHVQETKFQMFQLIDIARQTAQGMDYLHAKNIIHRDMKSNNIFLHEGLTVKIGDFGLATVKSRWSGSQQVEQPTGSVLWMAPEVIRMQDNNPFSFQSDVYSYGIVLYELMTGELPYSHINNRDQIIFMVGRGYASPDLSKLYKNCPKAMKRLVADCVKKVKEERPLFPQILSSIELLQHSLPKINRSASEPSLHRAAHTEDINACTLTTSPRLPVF
Method: Lysate preparation, pmmunoprecipitation, and pestern plotting.
as §2

For `Cl.N=C(N)SCc1ccc(Cl)cc1Cl` [Compound 3a], the “cyclin E kinase activity” value (cyclin E kinase activity) was “does not inhibit; also recorded: did not affect the kinase activities”, the “S-phase entry (BrdU), Saos-2” value (Saos-2 cells) was “little effect” and the “inhibition of S-phase entry, Aspc1, PANC1, CAPAN2” value [1] was 50-65%. For the same compound, the “inhibition of proliferation, MDA-MB-231” value (MDA-MB-231 cells) was 56%, the “inhibition of S-phase entry, A375” value (A375 melanoma cell line) was 58% and the “inhibition of proliferation, PC3” value (PC3 prostate cell line) was 35%. For the same compound, the “rescue of anti-proliferative activity by E2F1 over expression” value [2] was “sufficient to overcome; also recorded: efficiently overcame the anti-proliferative activity”, the “tumor growth, A549-sh6 tumors lacking Rb” value (A549-sh6 tumors) was “unable to inhibit tumor growth; also recorded: did not respond” and the “apoptosis, TUNEL staining of tumors” value (A549 tumors) was “dose dependent increase in apoptosis”. For the same compound, the “microvasculature, CD31 staining of tumors” value (A549 tumors) was “reduction in microvasculature”, the “phospho-Rb staining of tumors” value (A549 tumors) was “reduction in phosphorylation of Rb” and the “proliferation, Ki-67 staining of tumors” value (A549 tumors) was “significant inhibition of proliferation”. For the same compound, the “Rb:Raf-1 interaction in tumor lysates” value [3] was “inhibit the Rb:Raf-1 interaction in tumor lysates”.
